{"source": "patent US20200063214A1", "about": "“METHODS OF IDENTIFYING PATIENTS LIKELY TO BENEFIT FROM TREATMENT WITH A TELOMERASE INHIBITOR” (Geron Corporation, priority 2018, published 2020)", "key": {"[1]": {"tested_on": "intermediate-2 or high-risk myelofibrosis (MF) relapsed/refractory to JAK inhibitor", "assay": "Phase 2 study: spleen response (spleen volume reduction, SVR, by MRI at week 24)", "format": "in vivo, human", "excerpt": "(§1) Diagnosis of primary, post-essential thrombocythemia, or post-polycythemia vera MF was required; other eligibility criteria included measurable splenomegaly (by magnetic resonance imaging [MRI]), active MF-related systemic symptoms and platelet count ≥75×10^9/L. Primary endpoints were: spleen response rate (% achieving ≥35% spleen volume reduction [SVR] by MRI at week 24); and symptom response rate (% achieving ≥50% reduction in total symptom score [TSS] per the Myelofibrosis Symptom Assessment Form (MFSAF) v2 at week 24). Key secondary endpoints included safety, overall survival (OS), treatment response, molecular response, and pharmacokinetic and pharmacodynamic relationships."}, "[2]": {"tested_on": "intermediate-2 or high-risk myelofibrosis (MF) relapsed/refractory to JAK inhibitor", "assay": "Phase 2 study: symptom response (total symptom score, TSS, MFSAF v2 at week 24)", "format": "in vivo, human", "conditions": "9.4 mg/kg", "excerpt": "as §1"}, "[3]": {"tested_on": "intermediate-2 or high-risk myelofibrosis (MF) relapsed/refractory to JAK inhibitor", "assay": "Phase 2 study: overall survival (OS)", "format": "in vivo, human", "excerpt": "as §1"}, "[4]": {"assay": "Phase 2 study: adverse events on treatment", "format": "in vivo, human", "excerpt": "as §1"}, "telomerase activity": {"tested_on": "telomerase activity", "assay": "Pharmacodynamics: telomerase activity (TA) reduction from baseline in study subjects", "format": "in vivo, human", "conditions": "for subjects with Telomerase Activity >30% reduction from baseline / subjects with Telomerase Activity >50% reduction from baseline: both arms", "excerpt": "In other embodiments of the invention, telomerase activity and level of hTERT expression in biological samples obtained from patients can be determined to evaluate pharmacodynamic effects and/or monitor patients being treated with a telomerase inhibition. The telomerase activity can be measured using the TRAP (Telomeric Repeat Amplification Protocol) telomerase activity assay. The level of hTERT expression can be determined by measuring the level of hTERT RNA expression in the cells in the biological sample using northern blots or serial analysis of gene expression (SAGE) or other methods.\n(§2) Telomerase activity and hTERT was analyzed to evaluate pharmacodynamic effects for imetelstat."}, "hTERT RNA expression": {"tested_on": "hTERT RNA expression", "assay": "Pharmacodynamics: hTERT RNA level reduction from baseline, whole blood", "format": "in vivo, human", "conditions": "both arms", "procedure": "as §2"}, "human telomerase": {"tested_on": "human telomerase", "conditions": "Asai 2003; Herbert 2005; cited from earlier work"}, "[5]": {"tested_on": "various cancer cell lines and tumor xenografts in mice", "conditions": "cited from earlier work"}, "[6]": {"tested_on": "patients with essential thrombocythemia", "conditions": "phase 2, essential thrombocythemia; cited from earlier work"}, "[7]": {"tested_on": "intermediate-2 (int-2) or high-risk myelofibrosis (MF)", "conditions": "33-patient pilot study, Tefferi 2015; cited from earlier work"}, "[8]": {"conditions": "9.4 mg/kg, all with baseline TL data, N = 53"}, "[9]": {"conditions": "all with baseline TL data, N = 53"}, "[10]": {"conditions": "9.4 mg/kg arm, Non-TN (MUT), second clinical cutoff"}, "[11]": {"conditions": "9.4 mg/kg arm, Triple Negative (TN), second clinical cutoff"}, "[12]": {"conditions": "4.7 MG/KG, all subjects with baseline TL (N 40)"}, "[13]": {"conditions": "4.7 MG/KG, all subjects with baseline TL (N 40), first clinical cutoff"}, "[14]": {"conditions": "4.7 MG/KG, baseline TL <=Median Value"}, "[15]": {"conditions": "4.7 MG/KG, baseline TL >Median Value"}, "[16]": {"conditions": "9.4 MG/KG, all subjects with baseline TL (N 53)"}, "[17]": {"conditions": "9.4 MG/KG, baseline TL <=Median Value"}, "[18]": {"conditions": "9.4 MG/KG, baseline TL >Median Value"}, "[19]": {"conditions": "Spleen Response at wk 24 by IRC: No"}, "[20]": {"conditions": "Spleen Response at wk 24 by IRC: Yes"}}, "note": "“And” between values parts separate entries of the source, which are not always exact repeats. Identical values can stand only once. “Also recorded” adds a separate entry of the source."}
{"substance": "imetelstat: 13-mer oligonucleotide that targets the RNA template of human telomerase; first-in-class telomerase inhibitor (TAGGGTTAGACAA; 5' palmitoyl amidopropyl, thio-phosphoramidate, sodium salt, further chemistry not given here)", "values": [{"measurement": "responses (SVR or TSS) in patients with HMR having greater than one mutation", "setting": "[1]; 9.4 mg/kg", "result": "responses were observed"}, {"measurement": "rate of response (SVR or TSS), LMR or HMR with only 1 mutation compared to HMR with more than 1 mutations", "setting": "[1]; 9.4 mg/kg arm, week 24", "result": "enriched"}, {"measurement": "rate of response (SVR or TSS), TN group compared to Non-TN group", "setting": "[1]; 9.4 mg/kg arm, week 24", "result": "enriched"}, {"measurement": "rate of response (SVR or TSS), shorter baseline TL compared to longer TL", "setting": "[1]; 9.4 mg/kg arm, week 24", "result": "enriched; also recorded: higher rate of response"}, {"measurement": "subjects with SVR >= 35% at week 24 by IRC, No", "setting": "[1]; 9.4 mg/kg, Longer TL (>Median value), 24 subjects", "result": "23 (92.7%)"}, {"measurement": "subjects with SVR >= 35% at week 24 by IRC, No", "setting": "[1]; 9.4 mg/kg, Shorter TL (<= Median value), 29 subjects", "result": "24 (82.75%)"}, {"measurement": "subjects with SVR >= 35% at Week 24 by IRC, Yes", "setting": "[1]; [8]", "result": "(10.5%)"}, {"measurement": "subjects with SVR >= 35% at week 24 by IRC, No", "setting": "[1]; [8]", "result": "(89.5%)"}, {"measurement": "subjects with TSS >= 50% decrease at week 24, No", "setting": "[2]; Longer TL (>Median value), 24 subjects", "result": "18 (75%)"}, {"measurement": "subjects with TSS >= 50% decrease at week 24, No", "setting": "[2]; Shorter TL (<= Median value), 29 subjects", "result": "19 (65.6%)"}, {"measurement": "subjects with TSS >= 50% decrease at week 24, No", "setting": "[2]; [9]", "result": "(69.8%)"}, {"measurement": "subjects with TSS >= 50% decrease at week 24, Yes", "setting": "[2]; [9]", "result": "(30.2%)"}, {"measurement": "OS trend, shorter baseline TL (<= median TL)", "setting": "[3]; 9.4 mg/kg arm", "result": "better OS trend"}, {"measurement": "Median survival, months (95% CI)", "setting": "[3]; [10]", "result": "24.6 (19.7, NE) months"}, {"measurement": "Percentage of Subjects Who Died", "setting": "[3]; [10]", "result": "21/41 (51.2%)"}, {"measurement": "Median survival, months (95% CI)", "setting": "[3]; 9.4 mg/kg arm, Non-TN subjects, first clinical cutoff", "result": 23.6, "unit": "months"}, {"measurement": "OS HR (Hazard Ratio) (95% CI)", "setting": "[3]; 9.4 mg/kg arm, Non-TN vs TN, second clinical cutoff", "result": "2.60 (0.89, 7.59)"}, {"measurement": "Median survival, months (95% CI)", "setting": "[3]; 9.4 mg/kg arm, TN subjects, first clinical cutoff", "result": "not estimable"}, {"measurement": "Median survival, months (95% CI)", "setting": "[3]; [11]", "result": "NE (23.2, NE)"}, {"measurement": "Percentage of Subjects Who Died", "setting": "[3]; [11]", "result": "4/16 (25.0%)"}, {"measurement": "18-months survival rate % (95% CI)", "setting": "[3]; [12]", "result": 68.2, "unit": "%"}, {"measurement": "24-months survival rate % (95% CI)", "setting": "[3]; [12]", "result": 39.6, "unit": "%"}, {"measurement": "Number of events (OS)", "setting": "[3]; [13]", "result": 20}, {"measurement": "Overall Survival (months) Median (95% CI)", "setting": "[3]; [13]", "result": "22.3 (18.2, NE) months"}, {"measurement": "18-months survival rate % (95% CI)", "setting": "[3]; [14]", "result": 76.7, "unit": "%"}, {"measurement": "24-months survival rate % (95% CI)", "setting": "[3]; [14]", "result": 34.1, "unit": "%"}, {"measurement": "Number of events (%) (OS)", "setting": "[3]; 4.7 MG/KG, baseline TL <=Median Value, first clinical cutoff", "result": "10(25.0%)"}, {"measurement": "18-months survival rate % (95% CI)", "setting": "[3]; [15]", "result": 61.0, "unit": "%"}, {"measurement": "24-months survival rate % (95% CI)", "setting": "[3]; [15]", "result": 46.6, "unit": "%"}, {"measurement": "Number of events (%) (OS)", "setting": "[3]; 4.7 MG/KG, baseline TL >Median Value, first clinical cutoff", "result": "10(25.0%)"}, {"measurement": "Overall Survival (months) Median (95% CI)", "setting": "[3]; 4.7 MG/KG, longer baseline TL (>Median Value), first clinical cutoff", "result": "22.3 (16.6, NE) months and 22.3 months"}, {"measurement": "Overall Survival (months) Median (95% CI)", "setting": "[3]; 4.7 MG/KG, shorter baseline TL (<=Median Value), first clinical cutoff", "result": "20.3 (17.2, NE) months and 20.3 months"}, {"measurement": "18-months survival rate % (95% CI)", "setting": "[3]; [16]", "result": 75.9, "unit": "%"}, {"measurement": "24-months survival rate % (95% CI)", "setting": "[3]; [16]", "result": 54.2, "unit": "%"}, {"measurement": "Number of events (OS)", "setting": "[3]; 9.4 MG/KG, all subjects with baseline TL (N 53), first clinical cutoff", "result": 18}, {"measurement": "18-months survival rate % (95% CI)", "setting": "[3]; [17]", "result": 81.2, "unit": "%"}, {"measurement": "24-months survival rate % (95% CI)", "setting": "[3]; [17]", "result": 59.3, "unit": "%"}, {"measurement": "Number of events (%) (OS)", "setting": "[3]; 9.4 MG/KG, baseline TL <=Median Value, first clinical cutoff", "result": "8(15.1%)"}, {"measurement": "18-months survival rate % (95% CI)", "setting": "[3]; [18]", "result": 69.8, "unit": "%"}, {"measurement": "24-months survival rate % (95% CI)", "setting": "[3]; [18]", "result": 47.6, "unit": "%"}, {"measurement": "Number of events (%) (OS)", "setting": "[3]; 9.4 MG/KG, baseline TL >Median Value, first clinical cutoff", "result": "10(18.9%)"}, {"measurement": "Overall Survival (months) Median (95% CI)", "setting": "[3]; 9.4 MG/KG, longer baseline TL (>Median Value), first clinical cutoff", "result": 22.8, "unit": "months"}, {"measurement": "Overall Survival (months) Median (95% CI)", "setting": "[3]; 9.4 MG/KG, shorter baseline TL (<=Median Value), first clinical cutoff", "result": "not estimable"}, {"measurement": "Imetelstat-related hepatic toxicities, confirmed by independent Hepatic Review Committee", "setting": "[4]", "result": "not observed"}, {"measurement": "PD effect (telomerase activity and hTERT RNA reduction), 9.4 vs […]", "setting": "telomerase activity; 9.4 mg/kg arm vs […] arm", "result": "dose-dependent PD effect"}, {"measurement": "subjects achieving TA >=30% decrease from baseline at any timepoint", "setting": "telomerase activity; 4.7 MG/KG, 34 subjects with baseline", "result": "14 (41.2%)"}, {"measurement": "subjects achieving TA >=30% decrease from baseline at any timepoint", "setting": "telomerase activity; 9.4 MG/KG, 45 subjects with baseline", "result": "28 (62.2%)"}, {"measurement": "subjects with Telomerase Activity >30% reduction from baseline", "setting": "telomerase activity; [19]", "result": "41/70 (58.6%)"}, {"measurement": "subjects with Telomerase Activity >50% reduction from baseline", "setting": "telomerase activity; [19]", "result": "34/70 (48.6%)"}, {"measurement": "subjects with Telomerase Activity >30% reduction from baseline", "setting": "telomerase activity; [20]", "result": "3/4 (75%)"}, {"measurement": "subjects with Telomerase Activity >50% reduction from baseline", "setting": "telomerase activity; [20]", "result": "2/4 (50%)"}, {"measurement": "subjects with Telomerase Activity >30% reduction from baseline", "setting": "telomerase activity; TSS Response at wk 24: No", "result": "29/56 (51.8%)"}, {"measurement": "subjects with Telomerase Activity >50% reduction from baseline", "setting": "telomerase activity; TSS Response at wk 24: No", "result": "24/56 (42.9%)"}, {"measurement": "subjects with Telomerase Activity >30% reduction from baseline", "setting": "telomerase activity; TSS Response at wk 24: Yes", "result": "15/18 (83.3%)"}, {"measurement": "subjects with Telomerase Activity >50% reduction from baseline", "setting": "telomerase activity; TSS Response at wk 24: Yes", "result": "12/18 (66.7%)"}, {"measurement": "subjects with hTERT>50% reduction from baseline", "setting": "hTERT RNA expression; TSS Response at wk 24: No", "result": "45/81 (55.6%)"}, {"measurement": "subjects with hTERT>50% reduction from baseline", "setting": "hTERT RNA expression; TSS Response at wk 24: Yes", "result": "15/24 (62.5%)"}, {"measurement": "inhibition of telomerase enzymatic activity", "setting": "human telomerase", "result": "potent competitive inhibitor"}, {"measurement": "telomerase activity and cell proliferation", "setting": "[5]", "result": "inhibits telomerase activity and cell proliferation"}, {"measurement": "JAK2 V617F and CALR mutant allele burdens", "setting": "[6]", "result": "significant reduction"}, {"measurement": "platelet-lowering activity", "setting": "[6]", "result": "platelet-lowering activity"}, {"measurement": "clinical activity and safety profile", "setting": "[7]", "result": "Clinical activity and an acceptable safety profile"}]}
